System: nNOS
Assay: NOS enzyme activity assay (Eurofins), nNOS
Format: biochemical
Conditions: C1: 1 nM and 1 μM; 30 min reaction
Protocol: In mammalians NO is produced by the three isoforms of NOS: iNOS, eNOS, and nNOS. To evaluate the direct influence of cl on the different isoforms of NOS, an enzyme activity assay was conducted by Eurofins. C1 was mixed with the enzyme buffer, which included co-factors and substrates and by adding the enzyme the reaction was initiated. After 30 min the reaction was stopped, and NO concentration was measured. The results are normalised to positive control performed without any additional compounds and are presented as percentage in inhibition. […] To test the compounds effect on iNOS a concentration range from […] 5 μM were applied ([…], 1, 10, 100 nM, 1, and 5 μM), and for testing eNOS and nNOS 1 nM and 1 μM were applied.

CSC(=N)N [S-Methylisothiourea, reference compound]
enzymatic activity of nNOS: reduce the enzyme activity as predicted
